Results taken from patent US7524880B2, “Crystalline form of a substituted pyrrolidine compound” (Theravance, Inc., priority 2004, dated 2009).

Experiments:
hM2 receptor = target: T1, hM2 receptor (Homo sapiens, UniProt P08172); assay: Blockade of agonist-mediated inhibition of cAMP accumulation; format: cell-based; details: CHO-K1 cells expressing the hM2 receptor; read-out: Ki value for blockade of oxotremorine-inhibition of forskolin-mediated cAMP accumulation
T1 construct: expressed in transfected cells; host or cells: CHO-K1 cells
T1 sequence (P08172 1-466): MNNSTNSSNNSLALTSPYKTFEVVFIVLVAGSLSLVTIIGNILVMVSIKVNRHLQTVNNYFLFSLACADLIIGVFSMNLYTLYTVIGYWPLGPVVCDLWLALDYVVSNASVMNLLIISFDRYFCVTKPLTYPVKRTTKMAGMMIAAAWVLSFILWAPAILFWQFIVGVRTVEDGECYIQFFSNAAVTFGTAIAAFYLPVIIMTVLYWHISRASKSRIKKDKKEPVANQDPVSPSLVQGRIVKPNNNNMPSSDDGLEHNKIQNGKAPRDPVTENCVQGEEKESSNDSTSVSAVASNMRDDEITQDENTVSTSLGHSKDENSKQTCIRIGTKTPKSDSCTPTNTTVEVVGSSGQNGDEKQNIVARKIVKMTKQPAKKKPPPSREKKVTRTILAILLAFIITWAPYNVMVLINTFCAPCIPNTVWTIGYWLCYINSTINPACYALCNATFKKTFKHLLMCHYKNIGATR
Method: A. Blockade of Agonist-Mediated Inhibition of cAMP Accumulation
In this assay, the functional potency of a test compound was determined by measuring the ability of the test compound to block oxotremorine-inhibition of forskolin-mediated cAMP accumulation in CHO-K1 cells expressing the hM2 receptor.
cAMP assays were performed in a radioimmunoassay format using the Flashplate Adenylyl Cyclase Activation Assay System with ^125I-cAMP (NEN SMP004B, PerkinElmer Life Sciences Inc., Boston, Mass.), according to the manufacturer's instructions.
Cells were rinsed once with dPBS and lifted with Trypsin-EDTA solution (0.05% trypsin/0.53 mM EDTA) as described in the Cell Culture and Membrane Preparation section above. […] The cell pellet was then re-suspended in 10 mL dPBS, and the cells were counted with a Coulter Z1 Dual Particle Counter (Beckman Coulter, Fullerton, Calif.). […]
Reactions were incubated for 10 minutes at 37° C. and stopped by addition of 100 μL ice-cold detection buffer. Plates were sealed, incubated overnight at room temperature and counted the next morning on a PerkinElmer TopCount liquid scintillation counter (PerkinElmer Inc., Wellesley, Mass.). The amount of cAMP produced (pmol/well) was calculated based on the counts observed for the samples and cAMP standards, as described in the manufacturer's user manual. […]

[1] = tested on: pilocarpine-evoked salivation; assay: Inhalation guinea pig salivation assay; format: in vivo
Method: Guinea pigs (Charles River, Wilmington, Mass.) weighing 200-350 g were acclimated to the in-house guinea pig colony for at least 3 days following arrival. Test compound or vehicle were dosed via inhalation (IH) over a 10 minute time period in a pie shaped dosing chamber (R+S Molds, San Carlos, Calif.). Test solutions were dissolved in sterile water and delivered using a nebulizer filled with 5.0 mL of dosing solution. Guinea pigs were restrained in the inhalation chamber for 30 minutes. During this time, guinea pigs were restricted to an area of approximately 110 cm^2. This space was adequate for the animals to turn freely, reposition themselves, and allow for grooming. […] Upon completion of nebulization, guinea pigs were evaluated at 1.5, 6, 12, 24, 48, or 72 hrs after treatment.
Guinea pigs were anesthetized one hour before testing with an intramuscular (IM) injection of a mixture of ketamine 43.75 mg/kg, xylazine 3.5 mg/kg, and acepromazine 1.05 mg/kg at an 0.88 mL/kg volume. […] Saliva was collected for 10 minutes, at which point the gauze pad was weighed and the difference in weight recorded to determine the amount of accumulated saliva (in mg). The mean amount of saliva collected for animals receiving the vehicle and each dose of test compound was calculated. […] Results were calculated using result means (n=3 or greater). […]

CNCCCCCCCCN1CC[C@@H](C(C(N)=O)(c2ccccc2)c2ccccc2)C1 [compound of formula I, 2-[(S)-1-(8-methylaminooctyl)pyrrolidin-3-yl]-2,2-diphenylacetamide]
Ki (hM2 receptor): < 5 nM
apparent lung selectivity index (ratio of anti-sialagogue ID50 to bronchoprotective ID50) [1]: greater than 5
